This is an account of results in US8637549B2, “Pyridons as PDK1 inhibitors” (Boehringer Ingelheim International GmbH, priority 2008, dated 2014).

Marks after values point to notes of the source that are not given here.

Assay [1] concerns the target T1, ΔPH-PDK1 (shortened PDK1 enzyme aa 51-359; Q66A mutation) (Homo sapiens, UniProt O15530, Q66A).
T1 construct: a shortened PDK1 enzyme (aa 51-359; Q66A mutation) is used; His6 (N, cleaved yes); made in house
T1 sequence (O15530 51-359 Q66A): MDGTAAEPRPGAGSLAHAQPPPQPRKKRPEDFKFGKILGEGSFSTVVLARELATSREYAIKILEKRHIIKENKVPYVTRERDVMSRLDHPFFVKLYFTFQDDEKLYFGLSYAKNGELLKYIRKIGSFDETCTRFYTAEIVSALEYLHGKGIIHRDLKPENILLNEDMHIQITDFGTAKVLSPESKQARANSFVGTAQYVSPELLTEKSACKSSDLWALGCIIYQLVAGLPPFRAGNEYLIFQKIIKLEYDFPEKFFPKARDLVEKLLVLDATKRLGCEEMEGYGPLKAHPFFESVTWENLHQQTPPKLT
Kind of assay: PDK1 kinase assay II. In kind it is biochemical. To be noted: 10 μM compound, residual enzyme activity relative to DMSO control, values marked with asterisk (*). As to the method:
Another assay was developed in which a shortened PDK1 enzyme (aa 51-359; Q66A mutation) is used that carries in the N-terminal position a His6 tag that is cleaved during purification. (ΔPH-PDK1). […]
The reaction is started by adding the ATP solution and the mixture is incubated for 120 min at ambient temperature; at the start of the reaction the dishes are shaken gently. […] Then the plate is stuck down with sealing tape, 25 μL/well of scintillation solution (Microscint 0; Messrs. Perkin Elmer; No. 6013611) are added and the amount of P33 precipitated is measured using the Wallac Betacounter. The measured data are evaluated using Graphpad Prism software.
(§1) The % CTL values indicate the residual activity of the enzyme after the addition of the inhibitory compound in the solvent DMSO in relation to the enzyme activity in the solvent DMSO without the addition of a compound (control). The majority of the values were determined using the PDK1 kinase assay III described hereinbefore. The values marked with an asterisk (*) were determined using the PDK1 kinase assay II described hereinbefore.

The target of assay [2] is T2, His6-PDK1 (aa 52-556) (Homo sapiens, UniProt O15530).
T2 construct: 15 μL His6-PDK1 (aa 52-556) 3.33 ng/well) and PDKtide; host or cells: baculovirus-infected insect cells
T2 sequence (O15530 52-556): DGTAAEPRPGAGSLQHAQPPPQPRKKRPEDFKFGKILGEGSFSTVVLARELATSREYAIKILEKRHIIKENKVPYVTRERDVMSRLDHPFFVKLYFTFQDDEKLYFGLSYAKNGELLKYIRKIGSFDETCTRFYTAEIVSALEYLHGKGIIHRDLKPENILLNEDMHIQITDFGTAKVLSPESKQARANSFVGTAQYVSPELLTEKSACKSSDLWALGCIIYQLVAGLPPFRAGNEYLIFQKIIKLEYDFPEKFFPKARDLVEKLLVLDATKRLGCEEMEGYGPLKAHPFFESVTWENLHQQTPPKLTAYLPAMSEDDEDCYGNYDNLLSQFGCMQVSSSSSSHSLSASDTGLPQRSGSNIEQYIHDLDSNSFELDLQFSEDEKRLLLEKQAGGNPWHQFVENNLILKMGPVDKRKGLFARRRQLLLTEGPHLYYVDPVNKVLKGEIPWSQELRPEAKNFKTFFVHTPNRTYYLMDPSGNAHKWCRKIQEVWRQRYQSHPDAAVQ
Put plainly: PDK1 kinase assay III (with Tween 20). In kind it is biochemical. To be noted: 10 μM compound, residual enzyme activity relative to DMSO control, unmarked values, read-out: % CTL. As to the method:
Another PDK1 assay was developed which by comparison with PDK1 assay 1 additionally contains Tween 20:
The following components are combined in a well of a 96-well round-based dish (Messrs. Greiner bio-one, No. 650101): • 15 μL of compound to be tested in varying concentrations (e.g. Starting at 10 μM, and diluted in steps of 1:5) in APT buffer (50 mM tris/C1 pH7.5; 0.05% β-mercaptoethanol; 10 mM Mg-acetate; 0.0166% Tween 20; 3.33% DMSO) • 15 μL His6-PDK1 (aa 52-556) 3.33 ng/well) and PDKtide (KTFCGTPEYLAPEVRRE […]), synthesised by Pepceuticals Limited, Nottingham, United Kingdom; 25 μM final concentration); His6-PDK1 and PDKtide are together diluted accordingly in assay buffer (50 mM tris pH 7.5, 0.05% β-mercaptoethanol, 10 mM Mg-acetate); PDKtide is present in this mixture as an 83.3 μM solution. These 30 μL are routinely incubated for 30 min at RT. • 20 μL ATP solution (25 μM ATP with 1.0 μCi/well gamma-P33-ATP). The final concentration of Tween 20 is 0.005%.
The reaction is started by adding the ATP solution and the mixture is incubated for 90 min at ambient temperature; at the start of the reaction the dishes are shaken gently. The reaction is stopped by the addition of 50 μL/well of 500 mM phosphoric acid (H3PO4) and incubated for about 20 min at ambient temperature. The precipitate is transferred by harvesting onto filter plates (96-well microtitre filter plate: UniFilter GF/C; Messrs Perkin Elmer; No. 6005174), then washed 6 times with 50 mM H3PO4 and dried at 60° C. Then the plate is stuck down with sealing tape, 25 μL/well of scintillation solution (Microscint 0; Messrs. Perkin Elmer; No. 6013611) are added and the amount of P33 precipitated is measured using the Wallac Betacounter. The measured data are evaluated using Graphpad Prism software.
as §1

For the molecule `CN1CCC(N(C)c2ccc(Nc3ncc4cc(C#CCNC(=O)c5cccn(Cc6ccc(C(F)(F)F)nc6)c5=O)ccc4n3)cc2)CC1` [II-8, N-{3-[2-({4-[methyl(1-methylpiperidin-4-yl)amino]phenyl}amino)quinazolin-6-yl]prop-2-yn-1-yl}-2-oxo-1-{[6-(trifluoromethyl)pyridin-3-yl]methyl}-1,2-dihydropyridine-3-carboxamide], in assay [1], the “% CTL” value is 47.0* %.

Turning to `CN(C)Cc1ccc(Nc2ncc3cc(C#CCNC(=O)c4cccn(Cc5cccnc5)c4=O)ccc3n2)cc1` [II-5, N-{3-[2-({4-[(dimethylamino)methyl]phenyl}amino)quinazolin-6-yl]prop-2-yn-1-yl}-2-oxo-1-(pyridin-3-ylmethyl)-1,2-dihydropyridine-3-carboxamide], the “% CTL” value in assay [1] is recorded as 15.6* %.

On to `CN(C)Cc1ccc(Nc2ncc3cc(/C=C/CNC(=O)c4cccn(Cc5ccc(C(F)(F)F)nc5)c4=O)ccc3n2)cc1` [III-16, N-{(2E)-3-[2-({4-[(dimethylamino)methyl]phenyl}amino)quinazolin-6-yl]prop-2-en-1-yl}-2-oxo-1-{[6-(trifluoromethyl)pyridin-3-yl]methyl}-1,2-dihydropyridine-3-carboxamide], for which the remaining activity at 10 µM in assay [2] amounted to 19.2%.

In the case of `O=C1Nc2cc(/C=C/CNC(=O)c3cccn(Cc4ccc(Cl)nc4)c3=O)ccc2/C1=C/c1ccc[nH]1` [I-2, 1-[(6-chloropyridin-3-yl)methyl]-2-oxo-N-{(2E)-3-[(3Z)-2-oxo-3-(1H-pyrrol-2-ylmethylidene)-2,3-dihydro-1H-indol-6-yl]prop-2-en-1-yl}-1,2-dihydropyridine-3-carboxamide], the remaining activity at 10 µM in assay [2] stood at 21.4%.

With `Cc1ccc(Cn2cccc(C(=O)NC/C=C/c3ccc4c(c3)NC(=O)/C4=C\c3cnc[nH]3)c2=O)cn1` [I-24, N-{(2E)-3-[(3Z)-3-(1H-imidazol-5-ylmethylidene)-2-oxo-2,3-dihydro-1H-indol-6-yl]prop-2-en-1-yl}-1-[(6-methylpyridin-3-yl)methyl]-2-oxo-1,2-dihydropyridine-3-carboxamide], the remaining activity at 10 µM in assay [2] was 20.1%.
